# Where a name gives a salt, the structure may show the parent alone.
# Molecular target: T1, untagged HECT of NEDD4L (E3 ligase) (Homo sapiens, UniProt Q96PU5)
# T1 construct: using untagged HECT of NEDD4L (E3 ligase) instead of untagged HECT of NEDD4 wild-type (WT) (E3 ligase); made in house; host or cells: bacteria (printed for the NEDD4L HECT of the western-blot assay; not repeated here)
# T1 sequence (Q96PU5 594-975 limits assumed): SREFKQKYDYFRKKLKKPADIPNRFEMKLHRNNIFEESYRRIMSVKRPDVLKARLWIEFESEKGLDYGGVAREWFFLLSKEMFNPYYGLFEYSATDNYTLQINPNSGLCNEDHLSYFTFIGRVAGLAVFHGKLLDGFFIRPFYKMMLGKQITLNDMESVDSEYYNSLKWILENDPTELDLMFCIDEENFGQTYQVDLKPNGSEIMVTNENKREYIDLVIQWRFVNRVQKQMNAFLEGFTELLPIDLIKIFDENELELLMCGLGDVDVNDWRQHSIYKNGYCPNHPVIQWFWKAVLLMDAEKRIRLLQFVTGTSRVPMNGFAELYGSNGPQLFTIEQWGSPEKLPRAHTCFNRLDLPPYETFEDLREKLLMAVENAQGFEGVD
# Assay: In vitro ubiquitination assay TR-FRET based, NEDD4L
# Type: biochemical
# Conditions: read-out: percentage of inhibition (NEDD4L)
# Procedure: To determine the selectivity of identified NEDD4 inhibitors, it was quantitatively measured the self-ubiquitination process of the E3 HECT ligase belonging to NEDD4 family such as NEDD4L, HECW2 and ITCH in presence or not of some compounds such as 5, 9, 12, 29, 42, 45, 56, 58, 61, 77, 78, 85 and 94 employing TR-FRET based assays.
# The assay was performed as described above in the paragraph titled “In vitro ubiquitination assay TR-FRET based” under the heading “2.1. NEDD4 UBIQUITINATION ASSAYS” using untagged HECT of NEDD4L (E3 ligase) instead of untagged HECT of NEDD4 wild-type (WT) (E3 ligase). In this case, final E1, E2 and E3 concentrations in the assay buffer (Tris-HCl pH 7.6 25 mM, NaCl 100 mM, MgCl2 5 mM and Tween 0.01%) were 30, 350 and 31.3 nanomolars, respectively. Untagged HECT NEDD4L (E3 ligase) enzyme was produced and purified as reported in E. Maspero et al. Methods Mol Biol. 1449:153-60 (2016) and in E. Maspero et al. EMBO Reports 12:342-349(2011).
row,Structure (SMILES),inhibition at 11 µM
1,"CCOC(=O)/C=C/CCNCCCN1c2ccccc2CCc2ccc(Cl)cc21 [Compound 5, Ethyl (E)-5-[3-(3-chloro-10,11-dihydro-5H-dibenzo[b,f]azepin-5-yl)propylamino]pent-2-enoate maleate]",< 15%
2,"CON(C)C(=O)/C=C/CN(C)CCCCN1c2ccccc2CCc2ccc(Cl)cc21 [Compound 9, (E)-4-[4-(3-Chloro-10,11-dihydro-5H-dibenzo[b,f]azepin-5-yl)butyl-methyl-amino]-N-methoxy-N-methyl-but-2-enamide]",< 5%
3,"CCOC(=O)/C=C/CNCCCCN1c2ccccc2CCc2ccc(Cl)cc21.O=C(O)/C=C\C(=O)O [Compound 12, Ethyl (E)-4-[4-(3-chloro-10,11-dihydro-5H-dibenzo[b,f]azepin-5-yl)butylamino]but-2-enoate maleate]",< 15%
4,"CCOC(=O)/C=C/CNCCCCN1c2ccccc2C(=O)N(C)c2ccc(Cl)cc21 [Compound 29, Ethyl (E)-4-{[4-(7-chloro-10-methyl-11-oxo-10,11-dihydro-5H-dibenzo[b,e][1,4]diazepin-5-yl)butyl]amino}but-2-enoate maleate]",≤ 20%
5,"CCOC(=O)/C=C/CNCCCCN1c2cc(Cl)ccc2C(=O)N(C)c2ccccc21 [Compound 42, Ethyl (E)-4-{[4-(3-chloro-10-methyl-11-oxo-10,11-dihydro-5H-dibenzo[b,e][1,4]diazepin-5-yl)butyl]amino}but-2-enoate maleate]",< 15%
6,"CCOC(=O)/C=C/CNCCCCN1c2ccccc2C(=O)N(Cc2ccccc2)c2ccc(Cl)cc21 [Compound 45, Ethyl (E)-4-{[4-(10-benzyl-7-chloro-11-oxo-10,11-dihydro-5H-dibenzo[b,e][1,4]diazepin-5-yl)butyl]amino}but-2-enoate maleate]",≤ 20%
7,"CCOC(=O)/C=C/CNCCCCN1c2cc(Cl)ccc2C(=O)N(Cc2ccccc2)c2ccccc21 [Compound 56, Ethyl (E)-4-((4-(10-benzyl-3-chloro-11-oxo-10,11-dihydro-5H-dibenzo[b,e][1,4]diazepin-5-yl)butyl)amino)but-2-enoate maleate]",≤ 20%
8,"COC(=O)/C=C/CN(C)CCCCN1c2cc(Cl)ccc2C(=O)N(Cc2ccccc2)c2ccccc21 [Compound 58, Methyl (E)-4-{[4-(10-benzyl-3-chloro-11-oxo-10,11-dihydro-5H-dibenzo[b,e][1,4]diazepin-5-yl)butyl](methyl)amino}but-2-enoate maleate]",< 5%
9,"CN(C/C=C/C#N)CCCCN1c2cc(Cl)ccc2C(=O)N(Cc2ccccc2)c2ccccc21 [Compound 61, (E)-4-{[4-(10-benzyl-3-chloro-11-oxo-10,11-dihydro-5H-dibenzo[b,e][1,4]diazepin-5-yl)butyl](methyl)amino}but-2-enenitrile maleate]",< 5%
10,"C#CCON(C)C(=O)/C=C/CN(C)CCCCN1c2ccccc2CCc2ccc(Cl)cc21 [Compound 77, (E)-4-[4-(3-Chloro-10,11-dihydro-5H-dibenzo[b,f]azepin-5-yl)butyl-methyl-amino]-N-methyl-N-prop-2-ynoxy-but-2-enamide maleate]",< 15%
11,"CONC(=O)/C=C/CNCCCCN1c2ccccc2CCc2ccc(Cl)cc21 [Compound 78, (E)-4-[4-(3-Chloro-10,11-dihydro-5H-dibenzo[b,f]azepin-5-yl)butylamino]-N-methoxy-but-2-enamide maleate]",< 5%
12,"CONC(=O)/C=C/CN(C)CCCCN1c2ccccc2CCc2ccc(Cl)cc21 [Compound 85, (E)-4-[4-(3-Chloro-10,11-dihydro-5H-dibenzo[b,f]azepin-5-yl)butyl-methyl-amino]-N-methoxy-but-2-enamide maleate]",< 5%
13,"CN(C/C=C/C(=O)OCCOCCOCCOCCNC(=O)CCCC[C@@H]1SC[C@@H]2NC(=O)N[C@@H]21)CCCCN1c2ccccc2CCc2ccc(Cl)cc21 [Compound 94, 2-[2-(2-{2-[5-((3aS,4S,6aR)-2-Oxo-hexahydro-thieno[3,4-d]imidazol-4-yl)-pentanoylamino]-ethoxy}-ethoxy)-ethoxy]-ethyl (E)-4-{[4-(3-chloro-10,11-dihydro-dibenzo[b,f]azepin-5-yl)-butyl]-methyl-amino}but-2-enoate]",< 15%
